Source: EPA's ToxRefDB 2

Tests used:
rat [1] = conditions: Prenatal developmental toxicity study, sprague dawley, Inhalation, Whole-Body, dose end: 15 GD
guinea-pig = conditions: Subchronic dermal toxicity, hartley, Topical, dose end: 13 week, group: systemic, systemic / clinical chemistry / creatine phosphokinase / creatine phosphokinase + systemic / clinical chemistry / lactic acid dehydrogenase…
rat [2] = conditions: Developmental neurotoxicity study, sprague dawley, Oral, Feed, dose end: 63 PND, group: cannot be grouped
rat [3] = conditions: Subchronic oral toxicity in rodents, fischer, Water, dose end: 13 week
mouse = conditions: Subchronic oral toxicity in rodents, b6c3f1, Water, dose end: 13 week
rat [4] = conditions: Multigenerational reproductive toxicity study, sprague dawley, Oral, Feed, dose end: 3 generation
rat [5] = conditions: Subchronic oral toxicity in rodents, other, Feed, dose end: 17 week, group: systemic
rat [6] = conditions: Multigenerational reproductive toxicity study, sprague dawley, Oral, Feed, dose end: 2 generation
rat [7] = conditions: Sub-acute repeat dose toxicity, Sprague Dawley, Oral, Gavage/Intubation, dose end: 28 day
rat [8] = conditions: Multigenerational reproductive toxicity study, sprague dawley, Oral, Feed, dose end: 3 generation; remark: listed apart in the source
dog [9] = conditions: Subchronic oral toxicity in nonrodent, beagle, Capsule, dose end: 90 day, group: systemic
dog [10] = conditions: Subchronic oral toxicity in nonrodent, beagle, Capsule, dose end: 90 day, group: systemic, systemic / pathology microscopic / liver / [other] + systemic / pathology microscopic / liver / hypertrophy + systemic / pathology …
rat [11] = conditions: Subchronic oral toxicity in rodents, sprague dawley, Gavage/Intubation, dose end: 90 day, group: systemic, systemic / organ weight / liver / absolute + systemic / organ weight / liver / relative to body weight + systemic / pathology microscopic / …
rat [12] = conditions: Prenatal developmental toxicity study, sprague dawley, Oral, Gavage/Intubation, dose end: 15 GD
rabbit = conditions: Prenatal developmental toxicity study, new zealand white, Oral, Gavage/Intubation, dose end: 18 GD
[13] = group: developmental, developmental / developmental malformation / bone / short + developmental / developmental malformation / bone / wavy + developmental / …
[14] = group: developmental, developmental / developmental malformation / bone / wavy + developmental / developmental malformation / brain / dilated cerebral ventricle…
[15] = group: maternal, reproductive / reproductive performance / resorptions / resorptions
[16] = reproductive / reproductive performance / resorptions / resorptions + systemic / in life observation / body weight / body weight gain + …
[17] = systemic / in life observation / body weight / fetal weight
[18] = group: maternal, reproductive / reproductive performance / estrous cycle / abnormal
[19] = group: systemic, systemic / organ weight / thymus / absolute + systemic / organ weight / thymus / relative to body weight
[20] = group: systemic, systemic / organ weight / testes / absolute + systemic / organ weight / testes / relative to body weight + systemic / pathology gross / …
[21] = group: systemic, systemic / pathology gross / sperm measure / sperm count + systemic / pathology gross / sperm measure / sperm motility
[22] = group: offspring, developmental / developmental landmark / preputial separation / preputial separation + systemic / in life observation / body weight / …
[23] = group: offspring, systemic / in life observation / food consumption / food consumption + systemic / pathology microscopic / kidney / degeneration
[24] = group: parental, systemic / in life observation / food consumption / food consumption + systemic / organ weight / kidney / relative to body weight
[25] = group: parental, systemic / pathology gross / sperm measure / sperm morphology
[26] = group: reproductive, reproductive / offspring survival early / live fetuses / live fetuses
[27] = systemic / in life observation / body weight / body weight gain + systemic / in life observation / food consumption / food consumption + …
[28] = group: offspring, systemic / hematology / leukocyte (wbc) count differential / leukocyte (wbc) + systemic / hematology / monocytes / monocytes
[29] = group: offspring, systemic / hematology / leukocyte (wbc) count differential / leukocyte (wbc) + systemic / in life observation / body weight / offspring (pup…
[30] = group: parental, systemic / hematology / leukocyte (wbc) count differential / leukocyte (wbc) + systemic / in life observation / body weight / body weight
[31] = group: systemic, systemic / clinical chemistry / glucose / glucose + systemic / clinical chemistry / luteinizing hormone (lh) / luteinizing hormone (lh) + …
[32] = group: offspring, developmental / developmental landmark / vaginal opening / vaginal opening + systemic / in life observation / body weight / offspring (pup) …
[33] = group: parental, systemic / in life observation / body weight / body weight + systemic / organ weight / kidney / relative to body weight + systemic / organ …
[34] = group: parental, systemic / pathology microscopic / kidney / mineralization + systemic / pathology microscopic / kidney / cyst + systemic / pathology …
[35] = group: reproductive, reproductive / offspring survival early / litter size / litter size + reproductive / reproductive performance / estrous cycle / length + …
[36] = group: reproductive, reproductive / reproductive performance / gestational length / gestational length
[37] = systemic / pathology microscopic / liver / cytoplasmic alteration + systemic / pathology microscopic / liver / vacuolization
[38] = systemic / pathology microscopic / liver / cytoplasmic alteration + systemic / pathology microscopic / liver / vacuolization + systemic / …
[39] = group: developmental, systemic / in life observation / body weight / fetal weight
[40] = group: maternal, systemic / in life observation / clinical signs / respiration (rales) + systemic / in life observation / clinical signs / salivation + …
[41] = group: developmental, developmental / developmental malformation / bone / misshapen
[42] = group: maternal, reproductive / reproductive performance / postimplantation loss / postimplantation loss + systemic / in life observation / body weight / …

COCCO [2-Methoxyethanol]
LOAEL (rat [1]; [13]): > 200 ppm
NOAEL (rat [1]; [13]): ≥ 200 ppm
LEL (rat [1]; [14]): 50 ppm
NEL (rat [1]; [14]): < 50 ppm
LEL (rat [1]; [15]): 50 ppm
LOAEL (rat [1]; [15]): > 200 ppm
NEL (rat [1]; [15]): < 50 ppm
NOAEL (rat [1]; [15]): ≥ 200 ppm
LEL (guinea-pig): 1000 mg/kg/day
LOAEL (guinea-pig): > 1000 mg/kg/day
NEL (guinea-pig): < 1000 mg/kg/day
NOAEL (guinea-pig): ≥ 1000 mg/kg/day
LOAEL (rat [2]; [16]): > 620 mg/kg/day
NOAEL (rat [2]; [16]): ≥ 620 mg/kg/day
LEL (rat [2]; [17]): 16 mg/kg/day
NEL (rat [2]; [17]): < 16 mg/kg/day
LEL (rat [3]; [18]): 135 mg/kg/day
LOAEL (rat [3]; [18]): > 785 mg/kg/day
NEL (rat [3]; [18]): 70 mg/kg/day
NOAEL (rat [3]; [18]): ≥ 785 mg/kg/day
LOAEL (rat [3]; group: systemic, systemic / in life observation / body weight / body weight + systemic / pathology microscopic / spleen / fibrosis): 135 mg/kg/day
NOAEL (rat [3]; group: systemic, systemic / in life observation / body weight / body weight + systemic / pathology microscopic / spleen / fibrosis + systemic / clinical …): 70 mg/kg/day
LEL (rat [3]; [19]): 70 mg/kg/day
NEL (rat [3]; [19]): < 70 mg/kg/day
LEL (mouse; [18]): 492 mg/kg/day
LOAEL (mouse; [18]): > 1840 mg/kg/day
NEL (mouse; [18]): < 492 mg/kg/day
NOAEL (mouse; [18]): ≥ 1840 mg/kg/day
LOAEL (mouse; [20]): 529 mg/kg/day
NOAEL (mouse; [20]): 295 mg/kg/day
LEL (mouse; [21]): 295 mg/kg/day
NEL (mouse; [21]): < 295 mg/kg/day

CC(C)CCCCCCc1ccc(O)cc1 [4-Nonylphenol, branched]
LOAEL (rat [4]; [22]): > 171 mg/kg/day
NOAEL (rat [4]; [22]): ≥ 171 mg/kg/day
LEL (rat [4]; [23]): 18 mg/kg/day
NEL (rat [4]; [23]): < 18 mg/kg/day
LOAEL (rat [4]; [24]): > 122 mg/kg/day
NOAEL (rat [4]; [24]): ≥ 122 mg/kg/day
LEL (rat [4]; [25]): 18 mg/kg/day
NEL (rat [4]; [25]): < 18 mg/kg/day
LEL (rat [4]; [26]): 171 mg/kg/day
LOAEL (rat [4]; [26]): > 171 mg/kg/day
NEL (rat [4]; [26]): 53 mg/kg/day
NOAEL (rat [4]; [26]): ≥ 171 mg/kg/day
LEL (rat [5]; systemic / in life observation / body weight / body weight): 50 mg/kg/day
NEL (rat [5]; systemic / in life observation / body weight / body weight + systemic / in life observation / body weight / body weight gain + systemic / …): 15 mg/kg/day
LOAEL (rat [5]; [27]): > 150 mg/kg/day
NOAEL (rat [5]; [27]): ≥ 150 mg/kg/day
LEL (rat [6]; [28]): 1.25 mg/kg/day
NEL (rat [6]; [28]): < 1.25 mg/kg/day
LOAEL (rat [6]; [29]): > 100 mg/kg/day
NOAEL (rat [6]; [29]): ≥ 100 mg/kg/day
LEL (rat [6]; [30]): 100 mg/kg/day
LOAEL (rat [6]; [30]): > 100 mg/kg/day
NEL (rat [6]; [30]): 25 mg/kg/day
NOAEL (rat [6]; [30]): ≥ 100 mg/kg/day
LEL (rat [7]; [18]): 250 mg/kg/day
LOAEL (rat [7]; [18]): > 250 mg/kg/day
NEL (rat [7]; [18]): 50 mg/kg/day
NOAEL (rat [7]; [18]): ≥ 250 mg/kg/day
LEL (rat [7]; [31]): 50 mg/kg/day
LOAEL (rat [7]; [31]): > 250 mg/kg/day
NEL (rat [7]; [31]): 10 mg/kg/day
NOAEL (rat [7]; [31]): ≥ 250 mg/kg/day
NEL (rat [8]; group: offspring, developmental / developmental landmark / vaginal opening / vaginal opening): 10 mg/kg/day
LEL (rat [8]; [32]): 32.5 mg/kg/day
LOAEL (rat [8]; [32]): > 100 mg/kg/day
NOAEL (rat [8]; [32]): ≥ 100 mg/kg/day
LOAEL (rat [8]; [33]): > 100 mg/kg/day
NOAEL (rat [8]; [33]): ≥ 100 mg/kg/day
LEL (rat [8]; [34]): 10 mg/kg/day
NEL (rat [8]; [34]): < 10 mg/kg/day
LOAEL (rat [8]; [35]): > 100 mg/kg/day
NOAEL (rat [8]; [35]): ≥ 100 mg/kg/day
LEL (rat [8]; [36]): 10 mg/kg/day
NEL (rat [8]; [36]): < 10 mg/kg/day

CCCCCC(C)(CC)C(=O)NC (centres undefined) [N-Methylneodecanamide]
LOAEL (dog [9]; [37]): 13.5 mg/kg/day
NOAEL (dog [9]; [37]): < 13.5 mg/kg/day
LEL (dog [9]; [38]): 13.5 mg/kg/day
NEL (dog [9]; [38]): < 13.5 mg/kg/day
LEL (dog [10]): 4.52 mg/kg/day
LOAEL (dog [10]): 4.52 mg/kg/day
NEL (dog [10]): 1.35 mg/kg/day
NOAEL (dog [10]): 1.35 mg/kg/day
LEL (rat [11]): 30 mg/kg/day
LOAEL (rat [11]): 30 mg/kg/day
NEL (rat [11]): 3 mg/kg/day
NOAEL (rat [11]): 3 mg/kg/day
LEL (rat [12]; [39]): 400 mg/kg/day
LOAEL (rat [12]; [39]): 400 mg/kg/day
NEL (rat [12]; [39]): 125 mg/kg/day
NOAEL (rat [12]; [39]): 125 mg/kg/day
LEL (rat [12]; [40]): 125 mg/kg/day
LOAEL (rat [12]; [40]): 125 mg/kg/day
NEL (rat [12]; [40]): 40 mg/kg/day
NOAEL (rat [12]; [40]): 40 mg/kg/day
LEL (rabbit; [41]): 200 mg/kg/day
LOAEL (rabbit; [41]): 200 mg/kg/day
NEL (rabbit; [41]): 100 mg/kg/day
NOAEL (rabbit; [41]): 100 mg/kg/day
LEL (rabbit; [42]): 200 mg/kg/day
LOAEL (rabbit; [42]): 200 mg/kg/day
NEL (rabbit; [42]): 100 mg/kg/day
NOAEL (rabbit; [42]): 100 mg/kg/day
